# Literature values, collected in PMC8162882 (Chemical Science, 2020).
# Details: as toxic as the natural product
row,Substance,Toxicity relative to the natural product (6′-OH replaced by H)
1,amaninamide,25–50%
2,amanin,25–50%
